Laboratory results as given in PMC9551036, “A selective and orally bioavailable VHL-recruiting PROTAC achieves SMARCA2 degradation in vivo” (Nature Communications, 2022).
Values joined by “and” are separate entries in the source; they are usually repeats but may differ in a detail not shown here. Identical values can stand only once. Like-named read-outs stand apart in the source and are kept apart here.

Assays:
SMARCA4 = SMARCA4 (Homo sapiens, UniProt P51532); assay: SMARCA4 capillary electrophoresis protein assay in other cell lines (HCT116, LU99, HCC-364, HCT-15, HCC4006, SK-N-AS); type: cell-based; parameters: endogenous in cells; host or cells: RKO, HCT116, LU99, HCC-364, HCT-15, HCC4006, SK-N-AS; settings: for Bottom (best-fit value, % protein remaining) / DC50 / HillSlope: four-parameter fit; for LogEC50: log10 of concentration in mol/l; for DC50: protein degradation, read-out: EC50 (the source's name)
Sequence of SMARCA4 (P51532 whole entry): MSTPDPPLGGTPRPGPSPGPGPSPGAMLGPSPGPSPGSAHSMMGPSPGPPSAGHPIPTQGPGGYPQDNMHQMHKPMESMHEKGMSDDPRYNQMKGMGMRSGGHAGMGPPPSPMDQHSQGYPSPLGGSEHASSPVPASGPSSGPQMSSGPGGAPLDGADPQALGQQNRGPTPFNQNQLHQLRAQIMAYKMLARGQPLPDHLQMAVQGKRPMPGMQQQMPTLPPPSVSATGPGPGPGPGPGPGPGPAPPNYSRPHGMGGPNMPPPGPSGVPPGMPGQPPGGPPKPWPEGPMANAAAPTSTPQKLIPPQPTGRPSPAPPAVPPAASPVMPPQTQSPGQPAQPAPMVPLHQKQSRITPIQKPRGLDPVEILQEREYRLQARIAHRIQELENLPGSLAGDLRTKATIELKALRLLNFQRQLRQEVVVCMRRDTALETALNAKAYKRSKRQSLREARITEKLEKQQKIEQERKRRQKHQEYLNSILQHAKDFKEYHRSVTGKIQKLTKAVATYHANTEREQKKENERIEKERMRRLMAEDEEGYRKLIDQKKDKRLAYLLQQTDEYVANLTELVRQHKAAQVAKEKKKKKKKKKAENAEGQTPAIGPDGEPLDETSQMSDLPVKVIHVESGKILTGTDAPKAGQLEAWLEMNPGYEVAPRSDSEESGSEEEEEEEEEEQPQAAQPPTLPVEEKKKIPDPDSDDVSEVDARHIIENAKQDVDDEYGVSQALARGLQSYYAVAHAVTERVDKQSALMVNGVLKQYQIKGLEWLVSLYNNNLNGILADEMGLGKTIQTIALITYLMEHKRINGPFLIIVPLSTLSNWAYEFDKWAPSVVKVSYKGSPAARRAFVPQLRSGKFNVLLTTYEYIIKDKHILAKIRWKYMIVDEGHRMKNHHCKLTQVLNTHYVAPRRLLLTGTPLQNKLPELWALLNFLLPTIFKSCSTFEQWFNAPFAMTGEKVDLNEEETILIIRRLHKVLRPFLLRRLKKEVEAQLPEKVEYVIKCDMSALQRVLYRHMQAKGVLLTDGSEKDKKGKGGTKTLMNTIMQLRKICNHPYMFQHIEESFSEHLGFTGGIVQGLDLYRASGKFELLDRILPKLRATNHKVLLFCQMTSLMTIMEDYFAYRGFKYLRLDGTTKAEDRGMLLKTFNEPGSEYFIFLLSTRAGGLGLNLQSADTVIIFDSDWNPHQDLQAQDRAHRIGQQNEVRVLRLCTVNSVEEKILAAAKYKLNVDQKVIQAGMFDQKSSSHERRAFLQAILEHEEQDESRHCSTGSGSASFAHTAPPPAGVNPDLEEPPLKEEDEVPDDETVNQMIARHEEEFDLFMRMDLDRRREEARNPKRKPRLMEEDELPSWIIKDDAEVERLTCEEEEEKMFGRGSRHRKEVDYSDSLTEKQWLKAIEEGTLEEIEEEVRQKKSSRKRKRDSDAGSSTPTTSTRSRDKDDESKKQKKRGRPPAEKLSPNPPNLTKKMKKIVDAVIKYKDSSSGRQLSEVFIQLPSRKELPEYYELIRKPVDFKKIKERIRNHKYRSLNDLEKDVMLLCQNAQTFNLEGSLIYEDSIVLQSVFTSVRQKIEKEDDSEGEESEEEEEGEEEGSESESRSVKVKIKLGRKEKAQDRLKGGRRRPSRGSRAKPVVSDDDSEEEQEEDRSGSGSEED
Description: 130,000–200,000 cells were seeded in 24-well plates and incubated until settled down or overnight. Compounds were dissolved in DMSO and added to cells in indicated concentrations using a digital dispenser following an optional media change. […] For SMARCA2/4 half-life determination, 150,000 or 200,000 cells were seeded in 24-well plates. […] For SMARCA2/4 re-synthesis measurements, 200,000 cells were seeded in 24-well plates. […] Medium was removed, cells were washed with PBS and lysed with 80 µl Lysis Buffer (MSD Tris Lysis Buffer (#R60TX-2) + Halt Inhibitor Cocktail (100x) + Benzonase 0.5 µL/ml). Samples were frozen at −80 °C and thawed at room temperature before use. Samples were transferred to a V-bottom plate and insoluble debris was pelleted by centrifugation for 5 min at maximum speed. The supernatant was transferred to a fresh plate. Master Mix and Ladder were prepared according to manufacturer’s instructions for 12–230 kDa Wes Separation Module, 8 × 25 capillary cartridges, Protein Simple #SM-W004 with Anti-Rabbit Detection Module for Wes, Peggy Sue or Sally Sue, Protein Simple #DM-001. 4.8 µl lysate were mixed with 1.2 µl Master Mix to achieve a protein concentration of ~0.5 µg/µl. […] Wes plates were prepared and run according to manufacturer’s instructions. Proteins were quantified with accompanying Compass Software. SMARCA2/4 protein levels were normalised to GAPDH. […] Where applicable, curves were fitted using a 4-parametric logistic model.

SMARCA2 = SMARCA2 (Homo sapiens, UniProt P51531); assay: Western blot of SMARCA2 degradation in NCI-H1568 cells; type: cell-based; parameters: endogenous in cells; host or cells: RKO, NCI-H1568, A549, HCT116, LU99, HCC-364, HCT-15, HCC4006, SK-N-AS
Sequence of SMARCA2 (P51531 whole entry): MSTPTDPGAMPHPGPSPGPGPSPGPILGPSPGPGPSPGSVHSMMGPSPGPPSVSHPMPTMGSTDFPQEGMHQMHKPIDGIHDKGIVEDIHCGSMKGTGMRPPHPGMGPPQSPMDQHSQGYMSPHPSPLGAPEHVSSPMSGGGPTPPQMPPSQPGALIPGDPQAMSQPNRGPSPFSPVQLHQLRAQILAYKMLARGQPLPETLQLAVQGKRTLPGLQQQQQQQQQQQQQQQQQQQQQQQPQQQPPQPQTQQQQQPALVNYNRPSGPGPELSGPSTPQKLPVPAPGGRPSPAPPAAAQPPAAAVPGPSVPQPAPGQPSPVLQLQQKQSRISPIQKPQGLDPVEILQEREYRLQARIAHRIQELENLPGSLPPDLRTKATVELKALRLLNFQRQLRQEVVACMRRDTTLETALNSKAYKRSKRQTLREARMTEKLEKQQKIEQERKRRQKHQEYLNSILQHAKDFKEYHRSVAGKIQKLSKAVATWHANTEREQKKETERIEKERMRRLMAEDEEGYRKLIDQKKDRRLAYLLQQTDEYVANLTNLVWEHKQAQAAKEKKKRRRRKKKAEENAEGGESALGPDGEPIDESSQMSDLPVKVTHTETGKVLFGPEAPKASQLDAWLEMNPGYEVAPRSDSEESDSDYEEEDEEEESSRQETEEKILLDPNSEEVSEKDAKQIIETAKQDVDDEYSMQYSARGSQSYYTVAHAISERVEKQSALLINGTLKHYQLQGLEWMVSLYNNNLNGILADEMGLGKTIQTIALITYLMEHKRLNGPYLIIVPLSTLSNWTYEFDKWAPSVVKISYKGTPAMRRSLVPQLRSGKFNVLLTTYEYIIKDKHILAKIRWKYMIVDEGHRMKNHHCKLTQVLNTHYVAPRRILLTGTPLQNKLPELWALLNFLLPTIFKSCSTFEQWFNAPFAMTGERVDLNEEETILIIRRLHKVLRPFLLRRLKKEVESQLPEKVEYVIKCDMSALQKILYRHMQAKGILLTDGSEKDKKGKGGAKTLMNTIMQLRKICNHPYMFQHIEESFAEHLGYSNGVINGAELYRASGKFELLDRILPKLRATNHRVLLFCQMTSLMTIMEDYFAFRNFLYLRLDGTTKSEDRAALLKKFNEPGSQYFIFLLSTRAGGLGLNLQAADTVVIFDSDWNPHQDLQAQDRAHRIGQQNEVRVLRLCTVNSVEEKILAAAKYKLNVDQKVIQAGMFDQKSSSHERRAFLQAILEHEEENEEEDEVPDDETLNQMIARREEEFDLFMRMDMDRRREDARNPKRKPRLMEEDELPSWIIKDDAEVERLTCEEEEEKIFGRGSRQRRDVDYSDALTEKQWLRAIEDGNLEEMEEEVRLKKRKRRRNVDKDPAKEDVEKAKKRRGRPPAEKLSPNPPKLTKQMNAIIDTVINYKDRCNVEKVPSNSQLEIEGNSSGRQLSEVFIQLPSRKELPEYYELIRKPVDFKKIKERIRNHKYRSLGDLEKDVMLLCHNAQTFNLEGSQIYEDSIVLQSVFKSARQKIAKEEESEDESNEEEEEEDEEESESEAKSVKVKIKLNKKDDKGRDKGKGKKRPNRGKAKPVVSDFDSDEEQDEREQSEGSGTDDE
Description: Cells were seeded into 6-well plates 24 h before treatment. Next day, several wells were treated with compounds or DMSO as indicated, washed with PBS and lysed with lysis buffer (1% Triton X-100, 150 mM NaCl, 1 mM EDTA, 50 mM Tris pH 7.4, protease inhibitor cocktail (Roche), 50 units/mL benzonase nuclease (Sigma)). Lysates were cleared by centrifugation at 4 °C, at 15,800 × g for 10 min and the supernatants stored at −20 °C. Protein concentration was determined by BCA assay (Pierce) and the absorbance at 562 nm measured by spectrophotometry (NanoDrop ND1000). […] Western blot images were obtained through detection of SMARCA2 (Sigma #HPA029981 RRID:AB_10602406 1:1000), SMARCA4 (Abcam #ab108318 clone EPR3912 RRID:AB_10889900 1:1000), PBRM1 (Bethyl Laboratories #A301-591A RRID:AB_1078808 1:1000), β-actin (Cell Signalling #4970 clone 13E5 RRID:AB_2223172 1:2500) and GAPDH (Abcam #ab9485 RRID:AB_307275 1:2500) antibodies with IRDye 800CW donkey anti-rabbit secondary antibody (LI-COR #926-32213 RRID:AB_621848 1:10000) using a ChemiDoc MP imaging system (Bio-Rad). Western blots were quantified using Image Studio Lite (Licor, version 5.2) with normalisation to loading control and DMSO and further analysed using GraphPad Prism (version 9.2.0).

[1] = SuppFig3a, 10 nM, per replicate
[2] = SuppFig3a, 100 nM, per replicate
[3] = SuppFig3a, 1000 nM, per replicate
[4] = SuppFig3c, compound 100 nM + MG132 10 uM
[5] = SuppFig3c, compound 100 nM + VH298 10 uM
[6] = SuppFig3c, compound 100 nM alone

## Cc1ncsc1-c1ccc(C(CCC(C)CCN2CCC(c3ccc4c(c3)n(C3CCCC3)c3nc(=O)c5c(Br)cccc5n43)CC2)NC(=O)C2CC(O)CN2C(=O)C(NC(=O)C2(F)CC2)C(C)(C)C)cc1 (stereo not drawn) [ACBI2]
SMARCA4; HCC4006_SM4
  Bottom (best-fit value, % protein remaining): 9.858%
  LogEC50: -7.029
  DC50: 93.5 nM
SMARCA4; HCC4006_SM4, log10[concentration (mol/l)] -6
  % protein remaining: 8.466% and 14.8549% and 6.254%
SMARCA4; HCC4006_SM4, log10[concentration (mol/l)] -8
  % protein remaining: 107.17% and 168.214% and 84.8869%
SMARCA4; HCC4006_SM4, log10[concentration (mol/l)] -10
  % protein remaining: 87.4945% and 108.459% and 92.3747%
SMARCA4; HCC-364_SM4
  Bottom (best-fit value, % protein remaining): 3.161%
  HillSlope: -1.653
  LogEC50: -7.78
  DC50: 16.6 nM
SMARCA4; HCC-364_SM4, log10[concentration (mol/l)] -6
  % protein remaining: 3.167% and 1.374% and 3.983%
SMARCA4; HCC-364_SM4, log10[concentration (mol/l)] -7
  % protein remaining: 9.937% and 9.321% and 6.672%
SMARCA4; HCC-364_SM4, log10[concentration (mol/l)] -8
  % protein remaining: 73.4926% and 97.1764% and 52.0353%
SMARCA4; HCC-364_SM4, log10[concentration (mol/l)] -9
  % protein remaining: 95.3509% and 123.202% and 101.968%
SMARCA4; HCC-364_SM4, log10[concentration (mol/l)] -10
  % protein remaining: 89.9664% and 104.013% and 115.065%
SMARCA4; HCT116, SM4
  Bottom (% protein remaining, four-parameter fit): 25.06%
  HillSlope (protein remaining): -2.072
  Top (% protein remaining, four-parameter fit): 134.1%
SMARCA4; HCT116, SM4, conc 9.54e-12 mol/l
  % protein remaining: 111.196% and 129.494%
SMARCA4; HCT116, SM4, conc 3.81e-11 mol/l
  % protein remaining: 120.316% and 148.32%
SMARCA4; HCT116, SM4, conc 1.53e-10 mol/l
  % protein remaining: 129.784% and 140.879%
SMARCA4; HCT116, SM4, conc 6.1e-10 mol/l
  % protein remaining: 129.281% and 147.637%
SMARCA4; HCT116, SM4, conc 2.44e-9 mol/l
  % protein remaining: 120.666% and 159.63%
SMARCA4; HCT116, SM4, conc 9.77e-9 mol/l
  % protein remaining: 125.866% and 131.203%
SMARCA4; HCT116, SM4, conc 3.91e-8 mol/l
  % protein remaining: 69.9313% and 71.3683%
SMARCA4; HCT116, SM4, conc 1.56e-7 mol/l
  % protein remaining: 36.8806% and 32.4224%
SMARCA4; HCT116, SM4, conc 6.25e-7 mol/l
  % protein remaining: 24.622% and 20.2431%
SMARCA4; HCT116, SM4, conc 2.5e-6 mol/l
  % protein remaining: 26.4349% and 21.0447%
SMARCA4; HCT-15_SM4
  HillSlope: -0.3445
SMARCA4; HCT-15_SM4, log10[concentration (mol/l)] -6
  % protein remaining: 18.6748% and 17.1977% and 14.8633%
SMARCA4; HCT-15_SM4, log10[concentration (mol/l)] -7
  % protein remaining: 73.6571% and 71.0762% and 61.1459%
SMARCA4; HCT-15_SM4, log10[concentration (mol/l)] -8
  % protein remaining: 98.6414% and 84.1205% and 64.0182%
SMARCA4; HCT-15_SM4, log10[concentration (mol/l)] -9
  % protein remaining: 109.23% and 94.5032% and 92.8527%
SMARCA4; HCT-15_SM4, log10[concentration (mol/l)] -10
  % protein remaining: 99.1975% and 103.016%
SMARCA4; LU99_SM4
  Bottom (best-fit value, % protein remaining): 6.337%
  HillSlope: -1.201
  LogEC50: -7.559
  DC50: 27.6 nM
SMARCA4; LU99_SM4, log10[concentration (mol/l)] -8
  % protein remaining: 52.7226% and 80.027% and 88.2243% and 72.2723%
SMARCA4; LU99_SM4, log10[concentration (mol/l)] -9
  % protein remaining: 95.2248% and 87.3538% and 102.946% and 96.8042%
SMARCA4; LU99_SM4, log10[concentration (mol/l)] -10
  % protein remaining: 95.6247% and 91.3% and 105.138% and 100.656%
SMARCA4; SK-N-AS_SM4
  Bottom (best-fit value, % protein remaining): 7.287%
  HillSlope: -0.8189
  LogEC50: -7.454
  DC50: 35.2 nM
SMARCA4; SK-N-AS_SM4, log10[concentration (mol/l)] -6
  % protein remaining: 10.7051% and 13.0346%
SMARCA4; SK-N-AS_SM4, log10[concentration (mol/l)] -8
  % protein remaining: 53.489% and 73.7834%
SMARCA4; SK-N-AS_SM4, log10[concentration (mol/l)] -9
  % protein remaining: 84.3752% and 77.8596%
SMARCA4; SK-N-AS_SM4, log10[concentration (mol/l)] -10
  % protein remaining: 91.2323% and 74.8856%
SMARCA2; SuppFig3a, 1 nM, per replicate
  SMARCA2 degradation, % DMSO: 73.2377 % DMSO and 115.98 % DMSO and 86.1519 % DMSO
  smarca2/actin norm to DMSO: 0.7324 and 1.1598 and 0.8615
SMARCA2; [1]
  SMARCA2 degradation, % DMSO: 22.5404 % DMSO and 46.107 % DMSO and 14.5628 % DMSO
  smarca2/actin norm to DMSO: 0.2254 and 0.4611 and 0.1456
SMARCA2; [2]
  SMARCA2 degradation, % DMSO: 4.651 % DMSO and 9.376 % DMSO and 28.142 % DMSO
  smarca2/actin norm to DMSO: 0.04651 and 0.09376 and 0.2814
SMARCA2; [3]
  SMARCA2 degradation, % DMSO: 10.8582 % DMSO and 28.1242 % DMSO and 17.6912 % DMSO
  smarca2/actin norm to DMSO: 0.1086 and 0.2812 and 0.1769
SMARCA2; [4]
  SMARCA2 - combination with inhibitors, % DMSO: 144.315 % DMSO and 128.607 % DMSO and 88.3654 % DMSO
  smarca2/actin norm to DMSO: 1.443 and 1.286 and 0.8837
SMARCA2; [5]
  SMARCA2 - combination with inhibitors, % DMSO: 71.7463 % DMSO and 98.6474 % DMSO and 62.3416 % DMSO
  smarca2/actin norm to DMSO: 0.7175 and 0.9865 and 0.6234
SMARCA2; [6]
  SMARCA2 - combination with inhibitors, % DMSO: 15.1306 % DMSO and 12.518 % DMSO and 13.0375 % DMSO
  smarca2/actin norm to DMSO: 0.1513 and 0.1252 and 0.1304
